{"source": "ChEMBL document CHEMBL1201862", "about": "“PubChem BioAssay data set” (2004)", "key": {"[1]": {"assay": "activation of miR-122 Renilla sensor silencing – cell-based, Huh7 psiCHECK-miR122, Renilla luciferase, cherry-picked, dose response (AID 651956);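 further: huh7 hepatoma cells stably carrying a psiCHECK-2 miR-122 sensor plasmid; renilla luciferase signal reporting endogenous miR-122 activity after 48 h compound exposure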", "type": "functional"}, "[2]": {"assay": "general mammalian cell viability loss – inhibitor set, cherry-pick, set 2, cytotoxicity control for miR-122 modulator project, dose response (AID 720697)", "type": "functional, cell-based"}, "[3]": {"assay": "microbe, parasite or virus in culture", "type": "functional", "conditions": "Mycobacterium tuberculosis"}, "[4]": {"molecular_target": "T1, Low molecular weight phosphotyrosine protein phosphatase (Homo sapiens, UniProt P24666)", "T1 sequence (P24666 whole entry)": "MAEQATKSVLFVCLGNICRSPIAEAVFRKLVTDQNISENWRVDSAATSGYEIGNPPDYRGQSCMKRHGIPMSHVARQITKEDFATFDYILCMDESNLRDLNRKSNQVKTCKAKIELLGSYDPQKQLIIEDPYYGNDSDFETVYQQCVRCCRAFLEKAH", "type": "functional", "conditions": "read-out: IC50_Mean"}, "Cysteine protease ATG4B": {"molecular_target": "T2, Cysteine protease ATG4B (Homo sapiens, UniProt Q9Y4P1)", "T2 sequence (Q9Y4P1 whole entry)": "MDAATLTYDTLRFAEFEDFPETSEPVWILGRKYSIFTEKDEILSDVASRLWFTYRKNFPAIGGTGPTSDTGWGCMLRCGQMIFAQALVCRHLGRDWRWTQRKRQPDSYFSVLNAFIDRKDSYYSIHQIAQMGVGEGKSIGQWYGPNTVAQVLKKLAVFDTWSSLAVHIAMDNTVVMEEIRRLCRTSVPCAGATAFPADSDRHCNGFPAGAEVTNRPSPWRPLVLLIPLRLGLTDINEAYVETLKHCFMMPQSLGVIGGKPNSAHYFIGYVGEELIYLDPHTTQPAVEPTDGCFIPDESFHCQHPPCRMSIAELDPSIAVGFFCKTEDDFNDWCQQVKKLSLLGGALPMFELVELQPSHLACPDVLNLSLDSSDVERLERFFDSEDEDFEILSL", "type": "functional"}, "Phospholipase A2": {"molecular_target": "Phospholipase A2 (Homo sapiens, UniProt P04054)", "sequence (P04054 whole entry)": "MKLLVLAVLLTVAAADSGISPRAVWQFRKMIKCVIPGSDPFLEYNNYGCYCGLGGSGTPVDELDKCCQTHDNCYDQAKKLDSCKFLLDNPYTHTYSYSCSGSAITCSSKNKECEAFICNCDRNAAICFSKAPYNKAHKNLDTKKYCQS", "type": "functional"}, "Beta-galactosidase": {"molecular_target": "Beta-galactosidase (Escherichia coli, UniProt Q8VNN2)", "sequence (Q8VNN2 whole entry)": "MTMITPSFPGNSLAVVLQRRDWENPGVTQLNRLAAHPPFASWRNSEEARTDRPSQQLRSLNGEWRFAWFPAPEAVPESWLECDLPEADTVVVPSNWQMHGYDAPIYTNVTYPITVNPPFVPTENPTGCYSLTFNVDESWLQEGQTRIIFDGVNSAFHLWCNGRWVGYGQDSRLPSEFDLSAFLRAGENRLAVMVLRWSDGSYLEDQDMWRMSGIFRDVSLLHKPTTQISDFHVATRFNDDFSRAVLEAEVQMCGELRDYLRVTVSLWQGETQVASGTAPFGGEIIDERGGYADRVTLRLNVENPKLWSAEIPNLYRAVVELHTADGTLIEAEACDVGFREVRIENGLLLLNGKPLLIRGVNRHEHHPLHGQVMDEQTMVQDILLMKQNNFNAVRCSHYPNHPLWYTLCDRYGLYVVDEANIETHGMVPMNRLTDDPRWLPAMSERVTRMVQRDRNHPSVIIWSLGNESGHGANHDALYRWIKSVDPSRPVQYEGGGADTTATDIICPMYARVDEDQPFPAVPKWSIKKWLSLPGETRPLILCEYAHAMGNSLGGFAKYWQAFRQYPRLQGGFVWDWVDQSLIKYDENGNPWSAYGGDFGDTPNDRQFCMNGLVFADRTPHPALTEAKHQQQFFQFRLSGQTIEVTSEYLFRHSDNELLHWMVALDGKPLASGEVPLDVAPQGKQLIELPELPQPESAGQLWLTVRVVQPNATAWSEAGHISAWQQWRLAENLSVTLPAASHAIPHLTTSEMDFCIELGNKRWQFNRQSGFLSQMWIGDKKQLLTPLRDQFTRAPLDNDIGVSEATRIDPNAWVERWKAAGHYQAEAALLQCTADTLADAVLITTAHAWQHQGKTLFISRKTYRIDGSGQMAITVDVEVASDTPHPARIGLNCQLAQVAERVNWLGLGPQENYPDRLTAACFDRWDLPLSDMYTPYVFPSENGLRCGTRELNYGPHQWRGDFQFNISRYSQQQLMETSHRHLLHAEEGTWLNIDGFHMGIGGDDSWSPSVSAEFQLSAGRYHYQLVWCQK", "assay": "Dose response counterscreen for EBI2 assay utilizing the enzyme, b-galactosidase.", "type": "functional"}, "Melanocortin receptor 4": {"molecular_target": "Melanocortin receptor 4 (Homo sapiens, UniProt P32245)", "type": "functional, cell-based"}, "Estrogen receptor": {"molecular_target": "T3, Estrogen receptor (Homo sapiens, UniProt P03372)", "T3 sequence (P03372 whole entry)": "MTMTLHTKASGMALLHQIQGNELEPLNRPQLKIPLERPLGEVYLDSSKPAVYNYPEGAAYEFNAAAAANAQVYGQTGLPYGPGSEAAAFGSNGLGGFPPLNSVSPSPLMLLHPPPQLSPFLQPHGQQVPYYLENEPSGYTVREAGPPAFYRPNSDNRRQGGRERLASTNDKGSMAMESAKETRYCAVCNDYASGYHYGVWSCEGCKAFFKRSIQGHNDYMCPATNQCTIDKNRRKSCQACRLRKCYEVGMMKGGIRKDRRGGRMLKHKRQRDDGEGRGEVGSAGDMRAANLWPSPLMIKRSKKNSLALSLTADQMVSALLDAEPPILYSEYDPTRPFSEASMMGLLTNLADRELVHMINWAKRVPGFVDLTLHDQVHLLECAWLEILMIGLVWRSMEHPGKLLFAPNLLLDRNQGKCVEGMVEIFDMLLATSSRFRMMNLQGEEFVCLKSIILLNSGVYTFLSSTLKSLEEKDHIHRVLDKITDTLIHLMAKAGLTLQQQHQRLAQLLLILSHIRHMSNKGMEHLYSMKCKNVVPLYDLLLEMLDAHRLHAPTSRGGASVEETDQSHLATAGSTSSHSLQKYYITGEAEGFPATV"}, "[5]": {"assay": "viability of uninfected HEp-2 cells – cell-based, HTS, cytotoxicity control for RSV inhibitor project, dose response (AID 2410)", "type": "functional", "conditions": "human respiratory syncytial virus"}, "[6]": {"assay": "Luminescence Cell-Based Dose Retest to Confirm Inhibitors of Cancer Stem Cells. [Related pubchem assays (depositor defined):AID2717, AID2721]", "type": "functional", "conditions": "Homo sapiens"}, "[7]": {"molecular_target": "Heat shock protein HSP 90-alpha (Homo sapiens, UniProt P07900)", "type": "functional, organism-based"}, "HEK293": {"system": "HEK293", "assay": "cells", "type": "functional, cell-based", "conditions": "Homo sapiens"}, "[8]": {"molecular_target": "T4, Nuclear receptor subfamily 0 group B member 1 (Homo sapiens, UniProt P51843)", "T4 sequence (P51843 whole entry)": "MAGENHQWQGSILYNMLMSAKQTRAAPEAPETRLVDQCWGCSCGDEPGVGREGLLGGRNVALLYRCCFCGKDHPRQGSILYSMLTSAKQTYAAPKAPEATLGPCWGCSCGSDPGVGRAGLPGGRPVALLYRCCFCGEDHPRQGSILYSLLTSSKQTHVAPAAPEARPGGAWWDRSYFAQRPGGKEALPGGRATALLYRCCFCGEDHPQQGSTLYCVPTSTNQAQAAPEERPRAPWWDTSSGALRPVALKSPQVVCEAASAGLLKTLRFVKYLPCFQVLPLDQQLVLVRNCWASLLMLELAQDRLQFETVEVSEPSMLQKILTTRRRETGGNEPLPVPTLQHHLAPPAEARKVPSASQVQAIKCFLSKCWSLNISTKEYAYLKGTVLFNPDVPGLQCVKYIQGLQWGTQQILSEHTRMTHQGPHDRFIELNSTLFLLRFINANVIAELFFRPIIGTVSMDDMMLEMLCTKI", "assay": "Luminescence-based cell-based high throughput dose response assay for inhibitors of the orphan nuclear receptor subfamily 0, group B, member 1 (DAX1; NR0B1). [Related pubchem assays (depositor defined):AID504766, AID504790]", "type": "functional"}, "Fatty acid synthase [9]": {"molecular_target": "T5, Fatty acid synthase (Homo sapiens, UniProt P49327)", "T5 sequence (P49327 whole entry)": "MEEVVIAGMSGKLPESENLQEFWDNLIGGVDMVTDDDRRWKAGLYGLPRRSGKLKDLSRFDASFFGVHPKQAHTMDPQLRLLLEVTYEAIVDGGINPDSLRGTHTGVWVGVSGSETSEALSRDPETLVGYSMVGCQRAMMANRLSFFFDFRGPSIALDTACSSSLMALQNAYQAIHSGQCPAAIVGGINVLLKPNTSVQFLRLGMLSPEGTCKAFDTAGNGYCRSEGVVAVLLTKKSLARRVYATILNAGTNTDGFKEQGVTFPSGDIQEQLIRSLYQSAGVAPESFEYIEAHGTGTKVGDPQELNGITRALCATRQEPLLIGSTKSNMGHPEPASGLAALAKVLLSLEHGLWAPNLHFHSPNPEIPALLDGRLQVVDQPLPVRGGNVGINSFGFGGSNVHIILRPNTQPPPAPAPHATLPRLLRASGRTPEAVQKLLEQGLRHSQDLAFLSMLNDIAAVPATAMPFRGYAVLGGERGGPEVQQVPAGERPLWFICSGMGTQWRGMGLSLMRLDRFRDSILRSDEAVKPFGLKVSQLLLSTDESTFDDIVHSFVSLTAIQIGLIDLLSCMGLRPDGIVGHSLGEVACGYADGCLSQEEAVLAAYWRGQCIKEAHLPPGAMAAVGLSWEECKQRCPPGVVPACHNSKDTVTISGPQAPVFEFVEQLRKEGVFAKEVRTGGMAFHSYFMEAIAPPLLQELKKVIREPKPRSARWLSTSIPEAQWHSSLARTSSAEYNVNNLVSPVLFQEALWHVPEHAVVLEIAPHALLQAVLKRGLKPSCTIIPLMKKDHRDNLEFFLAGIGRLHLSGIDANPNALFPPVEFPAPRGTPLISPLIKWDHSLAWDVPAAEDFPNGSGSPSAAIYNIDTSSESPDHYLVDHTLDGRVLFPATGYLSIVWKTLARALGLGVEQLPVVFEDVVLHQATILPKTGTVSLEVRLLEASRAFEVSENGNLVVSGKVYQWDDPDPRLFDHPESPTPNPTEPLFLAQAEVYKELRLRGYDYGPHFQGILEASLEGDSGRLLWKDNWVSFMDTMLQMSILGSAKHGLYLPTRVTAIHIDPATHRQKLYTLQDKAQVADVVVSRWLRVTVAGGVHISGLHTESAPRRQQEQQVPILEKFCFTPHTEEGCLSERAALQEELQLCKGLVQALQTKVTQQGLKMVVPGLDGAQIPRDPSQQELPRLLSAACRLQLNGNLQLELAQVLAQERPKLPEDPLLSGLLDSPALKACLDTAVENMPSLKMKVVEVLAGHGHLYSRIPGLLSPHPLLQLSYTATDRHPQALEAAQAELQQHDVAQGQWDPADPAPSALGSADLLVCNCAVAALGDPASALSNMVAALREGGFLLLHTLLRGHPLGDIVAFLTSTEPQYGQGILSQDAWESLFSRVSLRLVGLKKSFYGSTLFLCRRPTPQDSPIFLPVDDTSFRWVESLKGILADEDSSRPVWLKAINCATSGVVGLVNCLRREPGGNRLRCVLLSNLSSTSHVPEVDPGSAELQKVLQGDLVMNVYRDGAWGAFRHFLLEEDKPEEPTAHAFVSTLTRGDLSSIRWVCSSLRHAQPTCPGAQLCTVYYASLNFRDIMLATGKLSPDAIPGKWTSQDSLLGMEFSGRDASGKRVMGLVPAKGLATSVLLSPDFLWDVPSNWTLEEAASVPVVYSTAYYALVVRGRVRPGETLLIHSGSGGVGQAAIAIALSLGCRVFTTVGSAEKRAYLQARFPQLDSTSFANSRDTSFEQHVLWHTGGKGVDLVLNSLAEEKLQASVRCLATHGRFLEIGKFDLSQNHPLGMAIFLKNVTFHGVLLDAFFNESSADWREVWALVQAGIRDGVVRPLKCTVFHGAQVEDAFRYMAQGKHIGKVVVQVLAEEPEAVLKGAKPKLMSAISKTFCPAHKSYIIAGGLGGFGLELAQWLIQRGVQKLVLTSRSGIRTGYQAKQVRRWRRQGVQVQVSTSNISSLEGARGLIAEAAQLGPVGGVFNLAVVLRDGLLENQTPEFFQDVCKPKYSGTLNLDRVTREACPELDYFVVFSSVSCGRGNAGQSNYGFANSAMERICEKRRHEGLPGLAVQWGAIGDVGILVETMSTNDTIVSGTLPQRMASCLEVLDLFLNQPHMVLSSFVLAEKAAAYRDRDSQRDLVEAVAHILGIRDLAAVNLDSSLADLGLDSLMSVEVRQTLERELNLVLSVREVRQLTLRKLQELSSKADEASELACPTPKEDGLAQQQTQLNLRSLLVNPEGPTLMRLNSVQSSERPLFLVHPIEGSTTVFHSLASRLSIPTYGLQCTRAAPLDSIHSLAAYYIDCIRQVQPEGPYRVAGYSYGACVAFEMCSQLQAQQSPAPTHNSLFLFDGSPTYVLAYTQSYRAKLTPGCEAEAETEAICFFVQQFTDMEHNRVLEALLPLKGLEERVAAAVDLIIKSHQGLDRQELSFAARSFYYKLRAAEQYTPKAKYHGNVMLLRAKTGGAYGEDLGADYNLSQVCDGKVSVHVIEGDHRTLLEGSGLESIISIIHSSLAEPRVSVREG", "assay": "inhibition of human FAS-TE enzyme activity – biochemical, endpoint fluorescence intensity, uHTS hits, dose response (AID 624327);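 further: fluorescence from hydrolysis of an O-methyl fluorescein acyl ester substrate by the enzyme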", "type": "functional"}, "Fatty acid synthase [10]": {"molecular_target": "T5, Fatty acid synthase", "assay": "inhibition of human FAS-TE enzyme activity – biochemical, kinetic fluorescence intensity, dose response (AID 624326);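 further: rate of fluorescence rise from hydrolysis of a fluorogenic O-methyl fluorescein ester substrate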", "type": "functional"}, "cells": {"assay": "cells", "type": "functional"}, "[11]": {"assay": "bead-based luminescence quenchers, dual-tagged ARNT – biochemical, AlphaScreen, cherry-pick, artefact control for ARNT-TACC3 interaction inhibitor project, dose response (AID 651705);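 further: AlphaScreen bead proximity signal that flags compounds interfering with the detection technology; potency reflects signal decrease which marks the compound as an assay artifact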", "type": "functional"}, "Estrogen receptor beta [12]": {"molecular_target": "T6, Estrogen receptor beta (Homo sapiens, UniProt Q92731)", "T6 sequence (Q92731 whole entry)": "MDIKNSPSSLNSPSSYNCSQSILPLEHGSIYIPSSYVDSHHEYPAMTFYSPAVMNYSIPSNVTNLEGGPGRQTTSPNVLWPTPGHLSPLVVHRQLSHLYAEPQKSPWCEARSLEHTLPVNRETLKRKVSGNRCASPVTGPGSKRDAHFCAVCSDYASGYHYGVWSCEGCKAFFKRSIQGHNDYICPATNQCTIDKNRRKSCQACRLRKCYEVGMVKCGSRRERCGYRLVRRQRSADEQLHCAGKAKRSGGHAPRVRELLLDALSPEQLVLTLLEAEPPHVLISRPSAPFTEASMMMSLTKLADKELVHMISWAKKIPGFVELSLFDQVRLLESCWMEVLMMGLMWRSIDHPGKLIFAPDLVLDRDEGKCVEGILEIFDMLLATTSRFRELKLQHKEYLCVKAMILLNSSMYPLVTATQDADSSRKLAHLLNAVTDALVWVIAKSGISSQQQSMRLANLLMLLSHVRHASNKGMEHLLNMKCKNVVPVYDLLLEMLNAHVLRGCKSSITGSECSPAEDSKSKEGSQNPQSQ"}, "Estrogen receptor beta [13]": {"molecular_target": "T6, Estrogen receptor beta", "assay": "blockers of SRC-3 recruitment to ERβ – biochemical, ELISA, streptavidin-HRP readout, orthogonal assay, confirmation (AID 1060)"}, "[14]": {"molecular_target": "T7, Polyadenylate-binding protein 1 (Homo sapiens, UniProt P11940)", "T7 sequence (P11940 whole entry)": "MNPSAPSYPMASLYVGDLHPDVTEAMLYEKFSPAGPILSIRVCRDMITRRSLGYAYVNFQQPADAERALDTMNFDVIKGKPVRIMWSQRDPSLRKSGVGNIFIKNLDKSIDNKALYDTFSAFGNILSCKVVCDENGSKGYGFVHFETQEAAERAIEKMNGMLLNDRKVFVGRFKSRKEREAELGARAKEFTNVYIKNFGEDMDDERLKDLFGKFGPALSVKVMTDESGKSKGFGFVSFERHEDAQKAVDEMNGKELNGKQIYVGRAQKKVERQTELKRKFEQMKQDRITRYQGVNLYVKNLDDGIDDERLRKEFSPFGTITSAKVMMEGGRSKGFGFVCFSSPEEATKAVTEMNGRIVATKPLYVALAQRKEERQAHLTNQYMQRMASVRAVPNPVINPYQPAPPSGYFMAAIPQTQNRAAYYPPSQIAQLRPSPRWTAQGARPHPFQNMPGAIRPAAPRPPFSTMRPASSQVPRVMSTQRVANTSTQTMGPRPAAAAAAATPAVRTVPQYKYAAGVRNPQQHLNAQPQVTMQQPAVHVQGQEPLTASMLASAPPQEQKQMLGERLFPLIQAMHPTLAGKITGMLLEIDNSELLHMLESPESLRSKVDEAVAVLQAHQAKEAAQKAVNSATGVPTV", "assay": "MLLE binding blockers, Cy5 peptide tracer – biochemical, fluorescence polarization, Cy5-PAM2 peptide, secondary, miRNA deadenylation inhibitor project, dose response (AID 602260)", "type": "functional", "conditions": "read-out: IC50_Mean"}, "[15]": {"molecular_target": "T7, Polyadenylate-binding protein 1", "assay": "MLLE domain peptide-binding blockers, IC50 – biochemical, fluorescence polarization, FITC-PAM2 peptide, dose response (AID 602259)", "type": "functional", "conditions": "read-out: IC50_Mean"}, "fMet-Leu-Phe receptor": {"molecular_target": "T8, fMet-Leu-Phe receptor (Homo sapiens, UniProt P21462)", "T8 sequence (P21462 whole entry)": "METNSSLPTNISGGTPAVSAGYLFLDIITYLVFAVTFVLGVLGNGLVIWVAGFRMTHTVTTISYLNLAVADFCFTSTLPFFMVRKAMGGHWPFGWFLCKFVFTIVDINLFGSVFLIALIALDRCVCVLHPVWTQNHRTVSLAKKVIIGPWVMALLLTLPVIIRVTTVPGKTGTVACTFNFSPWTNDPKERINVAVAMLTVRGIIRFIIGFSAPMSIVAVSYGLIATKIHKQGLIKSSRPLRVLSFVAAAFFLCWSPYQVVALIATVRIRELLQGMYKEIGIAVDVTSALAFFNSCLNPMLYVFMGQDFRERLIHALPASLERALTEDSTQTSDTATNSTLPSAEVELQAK", "assay": "formyl peptide receptor binders – dose response (AID 519)", "type": "functional"}, "[16]": {"assay": "Trypanosoma cruzi growth suppression in host cells – NIH3T3 host cells, beta-gal luminescence, confirmation (AID 2044);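 further: luminescent beta-galactosidase reporter signal from transgenic T. cruzi replicating inside host cells; inhibitors lower the luminescence signal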", "type": "functional, cell-based"}, "[17]": {"assay": "NIH3T3 cell viability loss – ATP luminescence, mouse fibroblasts, counter-screen, dose response (AID 2010);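 further: cells exposed to compound for about 90 hours before reading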", "type": "functional, cell-based"}}, "note": "The source made the active and inactive calls."}
{"smiles": "CCCc1ccc(S(=O)(=O)NCCc2ccncc2)cc1", "values": [{"measurement": "AC50", "setting": "[1]", "result": "34.1 µM (active)"}, {"measurement": "AC50", "setting": "[2]", "result": "8.02 µM (active)"}]}
{"smiles": "O=C(NCc1ccc2c(c1)OCO2)c1c(O)nc2sccn2c1=O", "values": [{"measurement": "CC50", "setting": "[3]", "result": "> 40 µM (active)"}, {"measurement": "IC50", "setting": "[4]", "result": "80 µM (inactive)"}]}
{"smiles": "COc1ccc2c(c1)C(c1ccc(C)o1)=NNC(c1ccccc1)=N2", "values": [{"measurement": "IC50", "setting": "Cysteine protease ATG4B", "result": "12.9 µM (active)"}, {"measurement": "IC50", "setting": "Phospholipase A2", "result": "8.91 µM (active)"}]}
{"smiles": "Cc1ccc(S(=O)(=O)N2CCN(C(=O)/C=C/c3ccccc3)CC2)cc1C", "values": [{"measurement": "IC50", "setting": "Beta-galactosidase", "result": "> 80 µM (inactive)"}]}
{"smiles": "COc1ccc(C(NC(=O)C2CCN(CCOc3ccc(Cl)cc3Cl)CC2)c2cccs2)cc1", "note": "(stereo not drawn)", "values": [{"measurement": "EC50", "setting": "Melanocortin receptor 4", "result": "> 89.2 µM (inactive)"}]}
{"smiles": "Cc1cc(C(=O)N2CCCC(C(=O)c3ccc(Oc4ccccc4)cc3)C2)[nH]n1", "note": "(stereo not drawn)", "values": [{"measurement": "IC50", "setting": "Cysteine protease ATG4B", "result": "28.3 µM (inactive)"}, {"measurement": "IC50", "setting": "Phospholipase A2", "result": "11.9 µM (active)"}]}
{"smiles": "O=C(NCc1ccco1)c1cc2ccccc2c(=O)o1", "values": [{"measurement": "IC50", "setting": "Estrogen receptor", "result": "30.2 µM (not active)"}]}
{"smiles": "COc1cc(N=Nc2ccc3ccccc3c2)ccc1O", "values": [{"measurement": "CC50", "setting": "[5]", "result": "23.3 µM (active)"}, {"measurement": "AC50", "setting": "[6]", "result": "2.65 µM (active)"}, {"measurement": "AC50", "setting": "[7]", "result": "10.7 µM (active)"}, {"measurement": "IC50", "setting": "HEK293", "result": "> 67.6 µM (inactive)"}, {"measurement": "IC50", "setting": "[8]", "result": "> 67.6 µM (inactive)"}]}
{"smiles": "O=C(O)/C=C/c1ccccc1Oc1ccc(Cl)cc1Cl", "values": [{"measurement": "IC50", "setting": "Cysteine protease ATG4B", "result": "11.5 µM (active)"}, {"measurement": "IC50", "setting": "Phospholipase A2", "result": "62.7 µM (inactive)"}]}
{"smiles": "O=S(=O)(c1ccccc1)c1nnn2c1nc(NC1CCN(Cc3ccccc3)CC1)c1ccccc12", "values": [{"measurement": "IC50", "setting": "Fatty acid synthase [9]", "result": "1.03 µM (active)"}, {"measurement": "IC50", "setting": "[4]", "result": "11.5 µM (active)"}, {"measurement": "IC50", "setting": "Fatty acid synthase [10]", "result": "0.793 µM (active)"}]}
{"smiles": "CC(C)(C)OC(=O)[C@H](Cc1ccccc1)NC(=O)c1ncn2c1c(O)nc1ccc(Br)cc12", "values": [{"measurement": "IC50", "setting": "[4]", "result": "5.17 µM (active)"}]}
{"smiles": "Clc1ccc(-c2ccc(CNCc3ccccn3)o2)cc1", "values": [{"measurement": "IC50", "setting": "cells", "result": "3.21 µM (active)"}, {"measurement": "AC50", "setting": "[11]", "result": "95.9 µM (active)"}]}
{"smiles": "COc1cc2c3c(c1)/C(=C1/SC(NC(C)=O)=NC1=O)C(=O)N3C(C)(C)C=C2C", "values": [{"measurement": "IC50", "setting": "Estrogen receptor beta [12]", "result": "3.37 µM (active)"}, {"measurement": "IC50", "setting": "Estrogen receptor beta [13]", "result": "96.2 µM (not active)"}, {"measurement": "IC50", "setting": "[14]", "result": "> 66 µM (inactive)"}, {"measurement": "IC50", "setting": "[15]", "result": "> 66 µM (inactive)"}, {"measurement": "Ki", "setting": "fMet-Leu-Phe receptor", "result": "> 66.7 µM (inactive)"}]}
{"smiles": "COc1ccccc1N(C(=O)c1ccncc1)c1nc(-c2ccc([N+](=O)[O-])cc2)cs1", "values": [{"measurement": "CC50", "setting": "[5]", "result": "29.6 µM (active)"}, {"measurement": "EC50", "setting": "[16]", "result": "0.448 µM (active)"}, {"measurement": "EC50", "setting": "[17]", "result": "> 60 µM (inconclusive)"}, {"measurement": "IC50", "setting": "Beta-galactosidase", "result": "> 80 µM (inactive)"}]}
